Six substances from the OligoGym collection can be followed below.

HELM strings list units from the 5' end as sugar, base in round brackets, then linkage (d deoxyribose, r ribose, m 2'-O-methyl, p phosphodiester). Strings are as the collection lists them; they lack the last nucleoside at the 3' end of the tested compound. [moe] = 2'-O-(2-methoxyethyl) (MOE); [sp] = phosphorothioate linkage; [m5C] = 5-methylcytosine

This data set addresses GFAP. Put plainly: mouse, dose not given. The note with it: ASO.
In turn, “RNA1{[moe]([m5C])[sp].[moe]([m5C])p.[moe](T)p.[moe](T)p.[moe](G)p.d(T)[sp].d(G)[sp].d(A)[sp].d(T)[sp].d(T)[sp].d(T)[sp].d(T)[sp].d([m5C])[sp].d([m5C])[sp].d([m5C])[sp].[moe]([m5C])p.[moe](G)p.[moe](T)[sp].[moe]([m5C])}$$$$ (last 3' nucleoside missing)” came in with a 3 h FOB score of 0 score 0-7.
With “RNA1{[moe]([m5C])[sp].[moe]([m5C])p.[moe](T)p.[moe](T)p.d(G)[sp].d(T)[sp].d(G)[sp].d(A)[sp].d(T)[sp].d(T)[sp].d(T)[sp].d(T)[sp].d([m5C])[sp].d([m5C])[sp].[moe]([m5C])p.[moe]([m5C])p.[moe](G)p.[moe](T)[sp].[moe]([m5C])}$$$$ (last 3' nucleoside missing)” the figure was 1 score 0-7; with “RNA1{[moe]([m5C])[sp].[moe]([m5C])p.[moe]([m5C])p.[moe](T)p.[moe]([m5C])[sp].d(T)[sp].d(T)[sp].d([m5C])[sp].d([m5C])[sp].d(T)[sp].d([m5C])[sp].d([m5C])[sp].d(A)[sp].d(G)[sp].d([m5C])[sp].[moe]([m5C])p.[moe](G)p.[moe]([m5C])[sp].[moe](G)}$$$$ (last 3' nucleoside missing)”, 5 score 0-7; with “RNA1{[moe]([m5C])[sp].[moe]([m5C])p.[moe]([m5C])p.[moe]([m5C])p.[moe](T)[sp].d(T)[sp].d(T)[sp].d([m5C])[sp].d(T)[sp].d([m5C])[sp].d(T)[sp].d([m5C])[sp].d([m5C])[sp].d(T)[sp].d(G)[sp].[moe](T)p.[moe](T)p.[moe](T)[sp].[moe]([m5C])}$$$$ (last 3' nucleoside missing)”, 2 score 0-7.
The figure for “RNA1{[moe]([m5C])[sp].[moe]([m5C])p.[moe]([m5C])p.[moe]([m5C])p.[moe](T)[sp].d([m5C])[sp].d(T)[sp].d(T)[sp].d([m5C])[sp].d([m5C])[sp].d(T)[sp].d([m5C])[sp].d([m5C])[sp].d(A)[sp].d(G)[sp].[moe]([m5C])p.[moe]([m5C])p.[moe](G)[sp].[moe]([m5C])}$$$$ (last 3' nucleoside missing)” is 3 score 0-7; for “RNA1{[moe]([m5C])[sp].[moe]([m5C])p.[moe]([m5C])p.[moe]([m5C])p.[moe]([m5C])[sp].d(T)[sp].d([m5C])[sp].d(T)[sp].d(A)[sp].d(T)[sp].d([m5C])[sp].d([m5C])[sp].d([m5C])[sp].d(T)[sp].d([m5C])[sp].[moe]([m5C])p.[moe]([m5C])p.[moe](A)[sp].[moe](G)}$$$$ (last 3' nucleoside missing)” it is 0 score 0-7.
